Legend:
Jily = test: MTS proliferation assay, Jily; assay type: cell-based; conditions: 72 h incubation, read-out: MTS proliferation assay IC 50 Jily
Method in brief: (§1)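 Cells seeded 24 h before treatment in RPMI-1640 with 5% or 10% FCS, then exposed 72 h at 37 °C, 7.5% CO2, to compound at final 10, 3, 1 and 0.3 μM. Viability by MTS, 3 h further incubation, absorbance 492 nm.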

MRC5 = test: MTS proliferation assay, MRC5; assay type: cell-based; conditions: MRC5, 72 h incubation; read-out: MTS proliferation assay IC 50 MRC5
Method in brief: as §1

Jurkat = test: MTS proliferation assay, Jurkat; assay type: cell-based, human; conditions: 72 h incubation, read-out: MTS proliferation assay IC 50 Jurkat
Method in brief: (§2)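 Cells seeded 24 h before treatment in RPMI-1640 with 5% or 10% FCS. Compounds added at 10, 3, 1 and 0.3 μM final and incubated 72 h at 37 °C, 7.5% CO2. MTS reagent then added for 3 h, absorbance read at 492 nm.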

HeLa = test: MTS proliferation assay, HeLa; assay type: cell-based, human; conditions: 72 h incubation, read-out: MTS proliferation assay IC 50 HeLa
Method in brief: as §2

HT1080 = test: MTS proliferation assay, HT1080; assay type: cell-based, human; conditions: HT1080, 72 h incubation; read-out: MTS proliferation assay IC 50 HT1080
Method in brief: as §2

[1] = tested on: adherent cells or suspension cells; test: Hoechst 33342 nuclear staining (fraction of apoptotic nuclei); assay type: cell-based; parameters: key: 0 relating to no activity; 1 relating to weak activity comprising less than 70% of the cells; score 2 relating to strong activity comprising more than 70% of the cells

IC50 (Jurkat) [nM] | IC50 (HeLa) [nM] | IC50 (HT1080) [nM] | SMILES | IC50 (Jily) [nM] | IC50 (MRC5) [nM] | Hoechst 33342 nuclear staining score ([1]; H460, conc 0.01 μm) | Hoechst 33342 nuclear staining score ([1]; H460, conc 0.1 μm) | Hoechst 33342 nuclear staining score ([1]; H460, conc 1 μm) | Hoechst 33342 nuclear staining score ([1]; HeLa, conc 0.01 μm) | Hoechst 33342 nuclear staining score ([1]; HeLa, conc 0.1 μm) | Hoechst 33342 nuclear staining score ([1]; HeLa, conc 1 μm) | Hoechst 33342 nuclear staining score ([1]; Jily, conc 0.01 μm) | Hoechst 33342 nuclear staining score ([1]; Jily, conc 0.1 μm) | Hoechst 33342 nuclear staining score ([1]; Jily, conc 1 μm) | Hoechst 33342 nuclear staining score ([1]; Jurkat, conc 0.01 μm) | Hoechst 33342 nuclear staining score ([1]; Jurkat, conc 0.1 μm) | Hoechst 33342 nuclear staining score ([1]; Jurkat, conc 1 μm) | Hoechst 33342 nuclear staining score ([1]; MRC5, conc 0.01 μm) | Hoechst 33342 nuclear staining score ([1]; MRC5, conc 0.1 μm) | Hoechst 33342 nuclear staining score ([1]; MRC5, conc 1 μm) | other results
> 1000 | > 1000 | > 1000 | Nc1nonc1-c1nc2ccccc2n1CC(=O)/C=C/c1ccc(Cl)cc1 [Example 118] | > 1000 | > 1000 | 0 | 0 | 0 | 0 | 0 | 0 | 0 | 0 | 1 (1 relating to weak activity comprising less than 70% of the cells) | 0 | 0 | 0 | 0 | 0 | 0 | Hoechst 33342 nuclear staining score ([1]; PBLs, conc 0.01 μm): 0; Hoechst 33342 nuclear staining score ([1]; PBLs, conc 0.1 μm): 0; Hoechst 33342 nuclear staining score ([1]; PBLs, conc 1 μm): 0
> 1000 | > 1000 | > 1000 | Cc1ccc(/C=C/C(=O)Cn2c(-c3nonc3N)nc3ccccc32)cc1 [Example 119] | > 1000 | > 1000 | 0 | 0 | 0 | 0 | 0 | 0 | 0 | 0 | 0 | 0 | 0 | 0 | 0 | 0 | 0 | Hoechst 33342 nuclear staining score ([1]; PBLs, conc 0.01 μm): 0; Hoechst 33342 nuclear staining score ([1]; PBLs, conc 0.1 μm): 0; Hoechst 33342 nuclear staining score ([1]; PBLs, conc 1 μm): 0
> 1000 | > 1000 | > 1000 | COc1cccc(/C=C/C(=O)Cn2c(-c3nonc3N)nc3ccccc32)c1 [Example 120] | > 1000 | > 1000 | 0 | 0 | 0 | 0 | 0 | 0 | 0 | 0 | 0 | 0 | 0 | 0 | 0 | 0 | 0 | Hoechst 33342 nuclear staining score ([1]; PBLs, conc 0.01 μm): 0; Hoechst 33342 nuclear staining score ([1]; PBLs, conc 0.1 μm): 0; Hoechst 33342 nuclear staining score ([1]; PBLs, conc 1 μm): 0

— patent USRE42890E1, “Furazanobenzimidazoles” (Basilea Pharmaceutica AG, priority 2003, dated 2011)
